The values below come from patent US8227408B2, “Leptin as an anti-amyloidogenic biologic and methods for delaying the onset and reducing Alzheimer's disease-like pathology” (Neurotez, Inc., priority 2005, dated 2012).

For assay [1], the system named is Neuro2a cells stably transfected with hyg-sa134 (SEAP-APP). The experiment in a line: Aβ production by Neuro2a cells stably transfected with hyg-sa134 (total Aβ in media, sandwich ELISA). As to conditions: for Aβ production / levels of Aβ in the media (in words): 2 or 5 h treatment; for Neuro2a/SEAP-APP Aβ(% control): total Aβ in conditioned media, concentration (TOFA 200 μM, cerulenin 200 μM, etomoxir 40 μM, peptide YY (3-36) 25 μM, CNTF 25 μM, leptin 400 ng/ml), mean ± SEM, 4 experiments, NS = non-significant; for Neuro2a/SEAP-APP Aβ(% control) / Aβ production (in words): 5 h. In kind it is cell-based, mouse. On the procedure:
(§1) Neuro2a (mouse neuroblastoma) stably transfected with hyg-sa134, a pcDNA3.1/Hygro plasmid (Invitrogen, CA) modified to express a fusion protein of secreted alkaline phosphatase (SEAP) and a fragment of APP consisting of the C-terminal 134 amino acids (“CAPP134”) (SEQ ID NO:10) were maintained in culture as described ([…]) in the presence of 400 μg/ml of hygromycin. SEQ ID NO: 11 is the DNA sequence of the entire hygsa134 vector, which was derived from the pcDNA3.1/Hygro vector by genetic manipulation to insert the DNA sequences for SEAP and CAPP134. The SEAP-CAPP cDNA insert from hyg-sa134 was also subcloned into an adenoviral vector using the Adeno Vator system (Qbiogene, Calif.). The DNA sequence for SEAP (corresponding to nucleotides 981-2441 of hyg-sa134) (SEQ ID NO: 9) is located 5′ to the DNA sequence (SEQ ID NO: 12) coding for CAPP134 (SEQ ID NO: 10).
(§2) SY5Y and hyg-sa134-Neuro2a cells were treated at 80% confluency (see below). Primary neural cultures from mouse embryos were allowed to grow for 6-12 days following plating and prior to viral infection and treatments.
About 5 μg/ml or about 10 μg/ml water-soluble cholesterol was added to cultures for 2 or 5 hours. Water soluble cholesterol (Sigma-Aldrich, MO) is a solution made of cholesterol balanced with cyclodextrin CDX (40 mg cholesterol per gr CDX). For comparison, cultures were treated with the equivalent amount of the resin alone, which leads to depletion of cholesterol in the cultures (Simons et al., Proc Natl Acad Sci USA. 95:6460-4 (1998)).
(§3) About 100 ng/ml or about 400 ng/ml leptin (Harbor-UCLA, CA), was added in cell culture medium for 2 or 5 h. Cells were approximately 80% confluent at the time of treatment. Peptide YY (3-36) (Phoenix Pharmaceuticals, Inc., CA), and CNTF (Sigma-Aldrich, Mo.) were added at about 25 μM or 150 μM for the same incubation periods. TOFA, etomoxir (Research Biochemicals International, MA) and cerulenin (Sigma-Aldrich, Mo.) were used as described below.
(§4) For the determination of Aβ peptide several methodologies also were used. SY5Y cells in culture were metabolically labeled with ^35S-[Met] as described (Figueiredo-Pereira et al. J Neurochem. 72:1417-22 (1999)), followed by immunoprecipitation, resolution of the immunoprecipitates on SDS-PAGE, autoradiography, and densitometric analysis of the autoradiogram. Neuro2a cells were stably transfected with hyg-sa134 (K. Sambamurti, S. Carolina Medical Center, SC) and Aβ40 (SEQ ID NO: 4) plus Aβ42 (SEQ ID NO: 5) plus Aβ43 (SEQ ID NO: 6) (Total Aβ) in the medium then was quantified by sandwich ELISAs developed with 4G8 and 6 ε10 monoclonal antibodies (Signet, Mass.) as described (Figueiredo-Pereira et al., J Neurochem. 72:1417-22 (1999)). Commercially available ELISA kits (KMI Diagnostics, MN) were used for the separate determination of Aβ40 (SEQ ID NO:4) and Aβ42/43 (SEQ ID NO:5/SEQ ID NO:6) in formic acid extracts of mice brains. Flotillin was detected using monoclonal anti-flotillin-1 antibodies (BD Biosciences, CA). Actin was detected using monoclonal anti-actin antibodies (Research Diagnostics, Inc, NJ).
Human (SYSY) or mouse neuroblastoma cell-lines (Neuro2a) commonly are used to study amyloid β metabolism in vitro. Neuro2a cells are stably transfected with hyg-sa134 (SEQ ID NO: 11), a plasmid driving the expression of a recombinant fusion protein containing the human C-terminal fragment of APP of about 134 amino acids, CAPP134 (SEQ ID NO: 10). Here, 5Y5Y or Neuro2a cultures were treated for 2 or 5 h with about 100 ng/ml or about 400 ng/ml leptin (FIG. 4a, 4b). Similarly, primary neurons from embryonic rat brain, infected with an adenovirus to direct the expression of CAPP134 (SEQ ID NO:10) also were treated according to the same regimen. […]

The test system of assay [2] is SY5Y cells. As to the kind of experiment: Aβ production by SY5Y cells. It counts as cell-based, human. The conditions noted are these: total Aβ in conditioned media, 5 h; concentration (TOFA 200 μM, cerulenin 200 μM, etomoxir 40 μM, peptide YY (3-36) 25 μM, CNTF 25 μM, leptin 400 ng/ml); mean ± SEM; NS = non-significant.
Text: (§5) Cell cultures, Treatments, Antibodies and Immunoassays. SY5Y cells (human neuroblastoma) were maintained in culture as described (Johnsingh et al., FEBS Lett. 465:53-8 (2000)). Primary neural cultures were obtained from ε16 rat embryonic cortex, as described (Shimoda et al., 1992. Brain Res. 586:319-31 (1992)). These were either grown as mixed cultures (Johnsingh et al., FEBS Lett. 465:53-8 (2000)) or grown under conditions that favor the isolation and proliferation of astrocytes (Takeshima et al., J Neurosci. 14:4769-79 (1994)).
as §2, §3, §4
(§6) Human (SYSY) or mouse neuroblastoma cell-lines (Neuro2a) commonly are used to study amyloid β metabolism in vitro. Neuro2a cells are stably transfected with hyg-sa134 (SEQ ID NO: 11), a plasmid driving the expression of a recombinant fusion protein containing the human C-terminal fragment of APP of about 134 amino acids, CAPP134 (SEQ ID NO: 10). Here, 5Y5Y or Neuro2a cultures were treated for 2 or 5 h with about 100 ng/ml or about 400 ng/ml leptin (FIG. 4a, 4b). Similarly, primary neurons from embryonic rat brain, infected with an adenovirus to direct the expression of CAPP134 (SEQ ID NO:10) also were treated according to the same regimen.

Assay [3] deals with primary embryonic rat neurons infected with adenovirus. As to the kind of experiment: Aβ production by primary embryonic rat neurons infected with adenovirus (SEAP-APP). In kind it is cell-based. As to conditions: total Aβ in conditioned media, 5 h; concentration (TOFA 200 μM, cerulenin 200 μM, etomoxir 40 μM, peptide YY (3-36) 25 μM, CNTF 25 μM, leptin 400 ng/ml); mean ± SEM; NS = non-significant.
Text: as §5, §1, §2, §6

Assay [4] concerns SY5Y cells. The experiment in a line: 125I-Aβ uptake by SY5Y cells (apoE-dependent). It counts as cell-based, human. As to conditions: RAP 1 μM added together with Aβ or the Aβ/apoE complex. On the procedure:
Preparation of ApoE and binding with ^125I-Aβ. ApoE was isolated from the conditioned media of human embryonic kidney (HEK-293) cells stably-transfected with human apoE (having the ε3 allele or the ε4 allele) cDNA (Tezapsidis et al., FASEB J. 17:1322-1324 (2003)). These preparations, while usually poor in lipid, are fully functional for uptake experiments. ApoE then was pre-incubated with ^125I-Aβ overnight at 37° C. (Aβ/ApoE: 1/50 w/w) as described (Tezapsidis et al., FASEB J. 17:1322-1324 (2003)).
Aβ-uptake by SY5Y cells. Human ^125I-Aβ (iodinated at Tyr-10, Amersham Biosciences, IM 294) uptake was measured following addition of 0.1 nM ^125I-Aβ40 (SEQ ID NO: 4) to confluent SY5Y cells (60,000 cpm/ml) in the presence or absence of 100 ng/ml or 400 ng/ml leptin also included in a 24 h pre-incubation period. ^125I-Aβ was either added alone or was previously incubated with apoε3. In controls, Receptor Associated Protein (“RAP”, 1 μM) was added together with Aβ or the Aβ/apoE complex. RAP is an antagonist of a number of lipoprotein receptors (LaDu et al., Neurochem Int. 39:427-34 (2001)). After 24 h, the media were collected and subjected to scintillation counting for γ-Iradiation (Kang et al., 2000. J Clin Invest. 106:1159-66 (2000)). The amount of radioactivity was measured in both the trichloroacetic acid (10%) TCA pellets (representing intact Aβ) and the corresponding supernatants (representing degraded Aβ). 96.5±8.2% (mean±s.e.m., n=4 experiments, triplicate determinations) of the radioactivity found in the medium could be recovered in the TCA pellet and represented intact or oligomeric Aβ (not shown), when Aβ was pre-incubated with apoE.
The amount of TCA-precipitable radioactivity in the soluble fraction of cell lysates was compared to that in the total lysates, the ratio of which was typically about 0.8 to about 0.9 (not shown), to further verify that radioactivity was reduced in the media as a reflection of Aβ uptake by the cells, rather than due to non-specific binding to the extracellular surface of membranes or oligomerization/aggregation of Aβ.
In panel (a), Aβ uptake was measured in SY5Y cells following their treatment at 0 ng/ml, 100 ng/ml or 400 ng/ml leptin. Uptake also was measured in cells previously transfected with antisense DNA for PS1 as described (Tezapsidis et al., FASEB J. 17:1322-1324(2003)) (black). Uptake is expressed as the percentage of that observed with Aβ pre-incubated with apoε3 (medium gray) in the absence of leptin (first set of columns). […] Leptin induced a dose-dependent increase in Aβ uptake with a preference for apoε3 (medium gray) over apoε4 (light gray). In panel (b), SY5Y cells were pre-treated with […] cholesterol (+Chol) or normal medium (−Chol). Then Aβ uptake was measured following its preincubation with apoε3 (ε3) or apoε4 (ε4) in the absence (black) or the presence (gray) of about 400 ng/ml leptin. Cells were more resistant to taking-up Aβ when loaded with cholesterol. […] In panel (c), SY5Y cells were transiently transfected with SREBP-1 or SREBP-2 cDNA or an empty vector (Control). Then Aβ was measured in the medium by ELISAs (Figueiredo-Pereira et al., J Neurochem. 72:1417-22 (1999)) following treatment with (+) or without (−) leptin. […] In panel (d), Aβ uptake was measured in SY5Y cells prepared as in panel (c). Uptake was performed using Aβ/apoε3 complexes.

Setting [5] is: 25 μM (equimolar concentrations), Table 1 cells.
The mark [6] stands for this setting: higher (150 μM) concentrations, not shown.

methyl-β-cyclodextrin: the “Aβ production / levels of Aβ in the media (in words)” value (“Aβ production / levels of Aβ” for short) in assay [1] is “lowering Aβ”.

As for `C/C=C/C/C=C/CCC(=O)[C@H]1O[C@H]1C(N)=O` [Cerulenin, cerulenin], in assay [1], the “Aβ production / levels of Aβ” value was “mimicked” and the “Neuro2a/SEAP-APP Aβ(% control)” value is 52 ± 12 % control. For the same molecule, the “SY5Y Aβ (% control)” value in the assay on SY5Y cells [2] is given as 65 ± 9, NS % control. Further, the “Neurons/SEAPP-APP Aβ (% control)” value in assay [3] is listed as 66 ± 5 % control.

“Peptide YY (3-36): gut-derived hormone affecting daily food intake”: the “Aβ production (in words)” value in assay [1] (setting [5]) and in assay [1] (setting [6]) was “neither peptide changed Aβ production in a statistically significant way” each time. The “Neuro2a/SEAP-APP Aβ(% control)” value in assay [1] is 92 ± 9, NS % control. Besides, the “SY5Y Aβ (% control)” value with SY5Y cells [2] is recorded as 96 ± 7, NS % control. Besides, in assay [3], the “Neurons/SEAPP-APP Aβ (% control)” value is on record as 98 ± 5, NS % control.

`CCCCCCCCCCCCCCOc1ccc(C(=O)O)o1` [TOFA, 5-(tetradecyloxy)-2-furancarboxylic acid]: in assay [1], the “Aβ production / levels of Aβ” value is on record as “mimicked” and the “Neuro2a/SEAP-APP Aβ(% control)” value is 40 ± 15 % control. In the assay on SY5Y cells [2], the “SY5Y Aβ (% control)” value amounted to 58 ± 12 % control. The “Neurons/SEAPP-APP Aβ (% control)” value in assay [3] is on record as 35 ± 4 % control.

For the molecule `CCOC(=O)[C@@]1(CCCCCCOc2ccc(Cl)cc2)CO1` [Etomoxir], in assay [1], the “Aβ production / levels of Aβ” value is on record as “increased Aβ production” and the “Neuro2a/SEAP-APP Aβ(% control)” value turned out to be 154 ± 14 % control. Moreover, the “SY5Y Aβ (% control)” value in the assay with SY5Y cells [2] was 142 ± 14 % control. In addition, the “Neurons/SEAPP-APP Aβ (% control)” value in assay [3] is recorded as 158 ± 14 % control.

B1: RAP: Receptor Associated Protein, antagonist of a number of lipoprotein receptors (protein)
chain: YSREKNQPKPSPKRESGEEFRMEKLNQLWEKAQRLHLPPVRLAELHADLKIQERDELAWKKLKLDGLDEDGEKEARLIRNLNVILAKYGLDGKKDARQVTSNSLSGTQEDGLDDPRLEKLWHKAKTSGKFSGEELDKLWREFLHHKEKVHEYNVLLETLSRTEEIHENVISPSDLSDIKGSVLHSRHTELKEKLRSINQGLDRLRRVSHQGYSTEAEFEEPRVIDLWDLAQSANLTDKELEAFREELKHFEAKIEKHNHYQKQLEIAHEKLRHAESVGDGERVSRSREKHALLEGRTKELGYTVKKHLQDLSGRISRARHNEL
Regarding B1, the Aβ uptake entry with SY5Y cells [4] is “abolished uptake”.

B2: Ciliary neurotrophic factor: member of the gp130 family of cytokines regulating survival and differentiation of neurons (protein, UniProt P26441 1-200, looked up)
Ciliary neurotrophic factor: MAFTEHSPLTPHRRDLCSRSIWLARKIRSDLTALTESYVKHQGLNKNINLDSADGMPVASTDQWSELTEAERLQENLQAYRTFHVLLARLLEDQQVHFTPTEGDFHQAIHTLLLQVAAFAYQIEELMILLEYKIPRNEADGMPINVGDGGLFEKKLWGLKVLQELSQWTVRSIHDLRFISSHQTGIPARGSHYIANNKKM
For the molecule B2, the “Aβ production (in words)” value in assay [1] (setting [5]) and in assay [1] (setting [6]) was “neither peptide changed Aβ production in a statistically significant way” throughout. In assay [1], the “Neuro2a/SEAP-APP Aβ(% control)” value is given as 95 ± 4, NS % control. The “SY5Y Aβ (% control)” value with SY5Y cells [2] was 96 ± 8, NS % control. Besides, the “Neurons/SEAPP-APP Aβ (% control)” value in assay [3] is reported as 89 ± 12, NS % control.
